Measured values as given in paper PMC7617869, “Molecular glues that inhibit deubiquitylase activity and inflammatory signaling” (Nature Structural & Molecular Biology, 2025).
Values joined by “and” are separate entries in the source; they are usually repeats but may differ in a detail not shown here. Equal values may be shown once.

Experiments:
[1] = tested on: composite ISG score in SSc PBMCs; assay: SSc PBMC composite ISG score (CXCL10, IFIT1, ISG15, MX1); format: cell-based, human
Description: (§1) PBMCs in vitro experiments
(§2) Peripheral blood mononuclear cells (PBMCs) from healthy and SSc donors were separated using density gradient method (Leucosep™, Greiner Bio-One International) from EDTA anticoagulated peripheral blood; isolated cells were washed twice by PBS. PBMCs were then incubated in RPMI1640 […]
(§3) For healthy PBMCs, cells were stimulated with 20 ng/mL of IFN (+/- compounds or DMSO). For SSc PBMCs, cells were in basal conditions with no additional IFN stimulation. Cells were centrifuged at 300 g for 10 minutes. […]
(§4) RNA was extracted from cell pellets using TRIzol™ (ThermoFisher
(§5) Scientific, Waltham, MA) and processed using Quick-RNA Miniprep Kit (Zymo Research) as per the manufacturer’s instruction.
(§6) For Type I IFN signalling analysis, the human IFN I RT2 Profiler PCR Array (Qiagen, PAMM-016ZE) was performed on available RNA from healthy (n=3) and SSc (n=9) donors. RNA was converted to cDNA using RT2 First Strand Kit (Qiagen). Next, the cDNA was mixed with RT2 SYBR Green Mastermix (Qiagen, Venlo). Successful PCR performance was confirmed by assay tests for genomic DNA contamination, RNA sample quality, as well as single melt curve determination and <35 Ct for each gene, leading to validated gene expression of 67 genes. Relative expression for each gene was determined, firstly by ∆CT calculated using the geometric mean of 4 housekeeping genes (ACTB, GAPDH, HPRT1, RPLP0), followed by 2^(-∆CT), and expressed as fold change to control, according to manufacturer’s guidance. IFN2α-induced ISGs in healthy donors were determined using a Student’s t-test (two-tail distribution and equal variances) on the triplicate fold change in 2^(-ΔCT) values between […]
(§7) donors). Heatmaps were generated using the “pheatmap” function in R (v4.0.2) and RStudio (v1.3.1093) applying row scaling to standardise the expression data across samples (R core team 2020.
(§8) R Foundation for Statistical Computing). The IFN2α inducible genes determined in healthy donors […]
(§9) 171-C. To account for Type I IFN signalling heterogeneity across samples, the mean 2^(-∆CT) for each […]
(§10) relative gene expression, illustrated as a fold change and visualised in log2. The Type I IFN signalling array data for the patient samples is included in Source Data Figure 6, Extended Data Fig. 9.

THP-1 cells = assay: THP-1 live cell percentage; format: cell-based; settings: THP-1, hIFNα2 25 ng/mL, 4 μM compound, 16 h
[2] = tested on: CXCL10 secretion in SSc PBMCs; assay: SSc PBMC CXCL10 ELISA, unstimulated; format: cell-based, human
Description: as §1, §2
For healthy PBMCs, cells were stimulated with 20 ng/mL of IFN (+/- compounds or DMSO). For SSc PBMCs, cells were in basal conditions with no additional IFN stimulation. Cells were centrifuged at 300 g for 10 minutes. Supernatant was removed and subjected to R&D Systems DY266 Human CXCL10/IP-10 DuoSet ELISA (Biotechne) in duplicates, according to manufacturer’s guidance. Concentration of CXCL10 was determined according to a 4-parameter

[3] = tested on: ISG expression in SSc PBMCs; assay: SSc PBMC type I IFN signaling gene expression array, unstimulated; format: cell-based, human
Description: as §1, §2, §3, §4, §5, §6, §7, §8, §9, §10

[4] = sheet Ext. 9e, SSc PBMCs, 20 values per compound (one per patient sample)
[5] = unstimulated PBMCs from SSc patients, one value per patient (P1-P9)

For `O=C(NC1CCNCC1)c1nn(C(=O)c2c(Cl)cccc2Cl)cc1NC(=O)c1c(Cl)cccc1Cl` [JMS-175-2], which CXCL10 [1, 4] is on record?
Its CXCL10 is 0.2536 and 3.414 and 0.2313 and 0.3588 and 1.2272 and 0.4193 and 1.168 and 0.8338 and 0.6055 and 1.239 and 0.3406 and 0.08106 and 0.000123 and 0.3625 and 0.05611 and 0.1808 and 1.381 and 0.5771 and 0.5421 and 0.1347.

What about the IFIT1 [1, 4] of the same compound?
The IFIT1 was 0.2366 and 1.382 and 0.8014 and 0.1818 and 0.6785 and 0.4193 and 1.168 and 0.7189 and 1.817 and 1.319 and 1.1 and 0.2301 and 0.1676 and 0.4861 and 0.2758 and 0.6203 and 0.8038 and 0.5004 and 0.169 and 0.3186.

What about the ISG15 [1, 4] of the same compound?
The ISG15 was 0.4563 and 0.8641 and 0.6274 and 0.4056 and 0.5557 and 0.616 and 1.197 and 0.8342 and 1.6 and 0.5253 and 1.319 and 0.4936 and 0.2916 and 0.7218 and 0.3961 and 0.8921 and 0.9105 and 0.5615 and 0.4313 and 0.6786.

And the MX1 [1, 4]?
The MX1 was 0.223 and 0.8929 and 1.04 and 0.5006 and 0.9521 and 0.6554 and 1.256 and 0.9444 and 1.592 and 1.073 and 1.238 and 0.494 and 0.2991 and 0.4305 and 0.1662 and 0.4949 and 1.066 and 0.6875 and 0.4778 and 0.5729.

What about the “composite ISG score” value ([1]; unstimulated SSc PBMCs (n = 20), 2 µM, 16 h, relative to AP-5-145) of the same compound?
Its value is “reduced the composite ISG score”.

What about the “percentage of live cells” value (THP-1 cells) of the same compound?
The value was 98.05%.

And the “CXCL10, SSc donor PBMCs (Fig. 6d)” value ([2]; SSc donor ID 68)?
The value was 66.733.

What about the “CXCL10, SSc donor PBMCs (Fig. 6d)” value ([2]; SSc donor ID 78) of the same compound?
The value was 0.

And the “CXCL10, SSc donor PBMCs (Fig. 6d)” value ([2]; SSc donor ID 79)?
The value was 0.

And the “CXCL10, SSc donor PBMCs (Fig. 6d)” value ([2]; SSc donor ID 142)?
Its value is 7.1246.

And the “CXCL10, SSc donor PBMCs (Fig. 6d)” value ([2]; SSc donor ID 205)?
The value was 83.3318.

And the “CXCL10, SSc donor PBMCs (Fig. 6d)” value ([2]; SSc donor ID 219)?
The value was 3.3086.

And the “CXCL10, SSc donor PBMCs (Fig. 6d)” value ([2]; SSc donor ID 244)?
Its value is 0.

What about the CXCL10 secretion ([2]; basal, nonstimulated SSc PBMCs, 16 h) of the same compound?
The CXCL10 secretion was “reduced CXCL10 secretion”.

What about the “number of ISGs (of 34) reduced compared to AP-5-145” value ([3]; SSc PBMCs (n = 9), 2 µM, 16 h) of the same compound?
The value was 22.

And the “ADAR, Type I IFN signalling array raw data” value [3, 5]?
Its value is 3.812 and 3.743 and 4.113 and 4.435 and 3.832 and 4.965 and 3.1007 and 4.473 and 4.363.

What about the “BST2, Type I IFN signalling array raw data” value [3, 5] of the same compound?
The value was 2.634 and 3.889 and 3.072 and 2.87 and 3.494 and 3.795 and 4.633 and 2.6092 and 2.483.

What about the “CASP1, Type I IFN signalling array raw data” value [3, 5] of the same compound?
Its value is 1.213 and 2.812 and 2.398 and 2.039 and 1.156 and 2.52 and 2.747 and 2.114 and 1.958.

What about the “CD86, Type I IFN signalling array raw data” value [3, 5] of the same compound?
Its value is 3.228 and 5.906 and 3.901 and 5.361 and 5.149 and 4.521 and 6.493 and 4.685 and 4.196.

What about the “CXCL10, Type I IFN signalling array raw data” value [3, 5] of the same compound?
Its value is 8.71 and 7.706 and 4.205 and 4.635 and 4.659 and 4.1108 and 5.782 and 5.515 and 4.585.

What about the “DDX58, Type I IFN signalling array raw data” value [3, 5] of the same compound?
Its value is 2.743 and 2.94 and 3.022 and 3.298 and 2.839 and 3.98 and 3.519 and 2.665 and 2.269.

What about the “GBP1, Type I IFN signalling array raw data” value [3, 5] of the same compound?
Its value is 2.158 and 2.728 and 1.98 and 1.48 and 2.261 and 1.7592 and 1.143 and 2.383 and 0.7799.

What about the “IFI6, Type I IFN signalling array raw data” value [3, 5] of the same compound?
Its value is 2.425 and 3.947 and 3.076 and 2.468 and 2.755 and 3.753 and 4.379 and 1.895 and 1.403.

And the “IFI16, Type I IFN signalling array raw data” value [3, 5]?
Its value is 2.049 and 1.794 and 2.214 and 1.769 and 1.846 and 2.52 and 0.8721 and 1.744 and 1.344.

What about the “IFIH1, Type I IFN signalling array raw data” value [3, 5] of the same compound?
The value was 4.067 and 4.072 and 3.5554 and 2.793 and 3.2049 and 5.377 and 3.587 and 3.865 and 3.376.

What about the “IFIT1, Type I IFN signalling array raw data” value [3, 5] of the same compound?
Its value is 6.813 and 5.481 and 4.387 and 3.431 and 4.758 and 6.993 and 4.645 and 3.607 and 3.511.

What about the “IFIT2, Type I IFN signalling array raw data” value [3, 5] of the same compound?
Its value is 3.877 and 4.276 and 4.33 and 2.588 and 4.403 and 4.745 and 2.229 and 3.19 and 2.838.

And the “IFIT3, Type I IFN signalling array raw data” value [3, 5]?
Its value is 4.821 and 4.968 and 3.571 and 2.478 and 4.365 and 4.923 and 2.496 and 2.53 and 2.343.

And the “IFITM1, Type I IFN signalling array raw data” value [3, 5]?
Its value is 1.018 and 0.9593 and 1.422 and 1.403 and 1.369 and 1.662 and 1.509 and 1.105 and 0.5587.

What about the “IFITM2, Type I IFN signalling array raw data” value [3, 5] of the same compound?
Its value is 4.116 and 4.7 and 5.192 and 4.824 (2×) and 4.737 and 4.678 and 5.159 and 5.095.

And the “IFITM3, Type I IFN signalling array raw data” value [3, 5]?
The value was 2.916 and 4.165 and 3.837 and 2.08 and 3.733 and 4.352 and 4.508 and 1.719 and 2.211.

And the “IRF1, Type I IFN signalling array raw data” value [3, 5]?
The value was 1.526 and 2.165 and 1.923 and 0.6715 and 1.654 and 1.161 and 1.159 and 2.105 and 0.7689.

And the “IRF7, Type I IFN signalling array raw data” value [3, 5]?
Its value is 5.385 and 5.096 and 5.885 and 3.925 and 5.478 and 5.126 and 4.9117 and 4.798 and 3.676.

And the “IRF9, Type I IFN signalling array raw data” value [3, 5]?
The value was 1.63 and 2.363 and 2.229 and 1.688 and 2.545 and 2.717 and 2.001 and 1.778 and 1.074.

What about the “ISG15, Type I IFN signalling array raw data” value [3, 5] of the same compound?
The value was 7.828 and 5.157 and 3.914 and 1.97 and 4.252 and 5.488 and 3.54 and 2.475 and 2.54.

What about the “ISG20, Type I IFN signalling array raw data” value [3, 5] of the same compound?
Its value is 2.454 and 3.36 and 3.266 and 3.42 and 2.95 and 3.395 and 3.115 and 4.07 and 2.362.

And the “MX1, Type I IFN signalling array raw data” value [3, 5]?
Its value is 4.39 and 3.317 and 4.478 and 2.343 and 4.002 and 5.299 and 4.681 and 3.297 and 2.96.

And the “MX2, Type I IFN signalling array raw data” value [3, 5]?
The value was 4.119 and 3.616 and 4.1617 and 3.303 and 3.807 and 5.104 and 3.9466 and 3.181 and 2.652.

What about the “MYD88, Type I IFN signalling array raw data” value [3, 5] of the same compound?
The value was 2.47 and 3.66 and 3.439 and 3.359 and 3.397 and 3.681 and 4.188 and 3.514 and 3.446.

And the “NMI, Type I IFN signalling array raw data” value [3, 5]?
The value was 1.562 and 2.473 and 2.043 and 2.157 and 2.037 and 2.367 and 1.861 and 2.107 and 1.945.

What about the “OAS1, Type I IFN signalling array raw data” value [3, 5] of the same compound?
The value was 3.9946 and 5.08 and 3.975 and 3.103 and 3.832 and 4.439 and 4.753 and 3.122 and 2.562.

What about the “OAS2, Type I IFN signalling array raw data” value [3, 5] of the same compound?
Its value is 4.012 and 3.3146 and 4.469 and 3.575 and 4.215 and 3.938 and 4.568 and 3.269 and 1.99.

What about the “PML, Type I IFN signalling array raw data” value [3, 5] of the same compound?
The value was 3.464 and 4.0817 and 4.578 and 3.206 and 4.344 and 4.48 and 3.583 and 3.774 and 3.137.

What about the “SOCS1, Type I IFN signalling array raw data” value [3, 5] of the same compound?
Its value is 3.527 and 3.231 and 4.351 and 3.055 and 4.321 and 4.161 and 3.784 and 3.314 and 2.261.

And the “STAT1, Type I IFN signalling array raw data” value [3, 5]?
The value was 0.658 and 1.171 and -0.3774 and -0.03547 and 0.5032 and 0.1577 and 0.4735 and 0.157 and -0.9535.

What about the “STAT2, Type I IFN signalling array raw data” value [3, 5] of the same compound?
The value was 3.702 and 3.438 and 3.148 and 3.834 and 3.166 and 3.676 and 3.7416 and 3.178 and 2.42.

And the “STAT3, Type I IFN signalling array raw data” value [3, 5]?
Its value is 1.85 and 1.467 and 4.524 and 1.728 and 2.05 and 2.151 and 1.4 and 1.718 and 1.637.

And the “TAP1, Type I IFN signalling array raw data” value [3, 5]?
The value was 1.739 and 1.988 and 2.594 and 1.8192 and 2.316 and 2.659 and 1.447 and 2.0534 and 1.014.

What about the “TNFSF10, Type I IFN signalling array raw data” value [3, 5] of the same compound?
Its value is 2.971 and 3.81 and 3.83 and 3.393 and 3.712 and 3.506 and 3.8599 and 3.839 and 2.706.
